For orientation: koff means a measure of how fast the partners let go of each other. One may read the kon as the second-order rate constant of association. Broadly, the pIC50 is the negative decadic logarithm of the IC50, by convention in mol/L. As usually defined, the pKd is the Kd on a negative log10 scale, so that one unit is a factor of ten. Read a high pKd as a small Kd.

Experiment [1] addresses T1, α3β4 nAChR (Rattus norvegicus, UniProt P04757+P12392). The experiment in a line: biochemical. More on the design: host or cells: HEK293 (KXα3β4R2). The class given is binding.
For experiment [2], the target named is T1, α3β4 nAChR. The experiment in a line: Nicotine-stimulated 86Rb+ efflux assay, KXα3β4R2 cell line. The class given is cell-based. More on the design: host or cells: HEK293 (KXα3β4R2). As for the experimental part:
After the prediction has been done based on clustering the actual values of IC50 were determined using the nicotine-stimulated ^86Rb^+ efflux assay on cell line KXα3β4R2.

For experiment [3], the target named is T1, α3β4 nAChR. The conditions noted are these: nicotine concentration of ~300 μM or higher; cited from earlier work.
The next experiment deals with nAChR, SH-SY5Y cells. The experiment in a line: Rb+ efflux assay, SH-SY5Y cells. In kind it is cell-based, human. The conditions noted are these: cell line SH-SY5Y.
Where [4] appears, read: α3β4 nAChR, NLC, read-out: koff dissociation constant rate.
[5] abbreviates: α3β4 nAChR, NLC, read-out: kon association constant rate.
[6] abbreviates: α3β4 nAChR, NLC, read-out: log K chromatographic equilibrium constant (converted).
The mark [7] stands for this setting: α3β4 nAChR, 10 μM, 20 μl injected, ammonium acetate 10 mM pH 7.4/methanol 85:15.
Where [8] appears, read: nicotine-stimulated 86Rb+ efflux, cell line KXα3β4R2, read-out: IC50.
[9] abbreviates: IC50 of Rb+ efflux, cell line KXα3β4R2.

pIC50, pKd: −log10 of the molar value. Like-named read-outs stand apart in the source and are kept apart here.

T1 sequence (P04757 26-499): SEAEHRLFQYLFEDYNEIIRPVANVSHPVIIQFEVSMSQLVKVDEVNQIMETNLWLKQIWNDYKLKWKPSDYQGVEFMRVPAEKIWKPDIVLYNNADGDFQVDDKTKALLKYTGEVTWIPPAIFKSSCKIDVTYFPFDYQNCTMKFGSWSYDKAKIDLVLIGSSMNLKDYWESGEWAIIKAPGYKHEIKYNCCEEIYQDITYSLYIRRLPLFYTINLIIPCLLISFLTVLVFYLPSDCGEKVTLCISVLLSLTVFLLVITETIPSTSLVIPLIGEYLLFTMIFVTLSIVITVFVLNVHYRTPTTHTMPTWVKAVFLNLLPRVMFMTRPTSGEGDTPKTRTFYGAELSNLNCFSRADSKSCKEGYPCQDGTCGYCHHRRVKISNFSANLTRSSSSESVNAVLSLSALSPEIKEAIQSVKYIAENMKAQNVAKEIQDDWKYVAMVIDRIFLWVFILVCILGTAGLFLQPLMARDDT
T1 sequence (P12392 21-495): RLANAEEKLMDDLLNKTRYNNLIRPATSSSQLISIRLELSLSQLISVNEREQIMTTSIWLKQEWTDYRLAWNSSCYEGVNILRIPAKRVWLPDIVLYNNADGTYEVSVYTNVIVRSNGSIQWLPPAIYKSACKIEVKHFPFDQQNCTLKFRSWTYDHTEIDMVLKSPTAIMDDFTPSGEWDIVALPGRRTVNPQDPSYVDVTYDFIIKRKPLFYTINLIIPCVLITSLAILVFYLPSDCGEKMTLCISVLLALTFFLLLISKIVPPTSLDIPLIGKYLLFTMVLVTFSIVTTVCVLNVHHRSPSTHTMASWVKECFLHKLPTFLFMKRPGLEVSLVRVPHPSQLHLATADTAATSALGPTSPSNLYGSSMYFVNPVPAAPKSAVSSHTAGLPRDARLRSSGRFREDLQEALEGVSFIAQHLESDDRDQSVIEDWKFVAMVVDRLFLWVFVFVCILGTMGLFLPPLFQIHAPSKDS

On to `CN1CC[C@@]23CCCC[C@@H]2[C@@H]1Cc1ccc(O)cc13` [dextrorphan], for which, on α3β4 nAChR [1] (setting [4]), the off-rate constant (koff) was found to be 2.3 s⁻¹. Further, the kon on α3β4 nAChR [1] (setting [5]) is 2.07e+07 M⁻¹ s⁻¹. Besides, the Kd on α3β4 nAChR [1] (setting [6]) was 112 nM.
Regarding `COc1ccc([C@@H]2Sc3ccccc3N(CCN(C)C)C(=O)[C@@H]2OC(C)=O)cc1` [dilthiazem], the “logk′” value on α3β4 nAChR [1] (α3β4 nAChR) is recorded as 1.64. In addition, at α3β4 nAChR [1] (α3β4 nAChR, NLC), the “koff dissociation constant rate” value was 1.60 s⁻¹. Moreover, at α3β4 nAChR [1] (α3β4 nAChR, NLC), the “log K chromatographic equilibrium constant” value is on record as 7.22 M^−1. The “k′(NLC) retention capacity factor” value on α3β4 nAChR [1] (setting [7]) was 43.53. In addition, the pIC50 was 5.65 on α3β4 nAChR [2] (cell line KXα3β4R2, read-out: IC50 of Rb+ efflux); 5.66 on α3β4 nAChR [2] (setting [8]); 5.64 on α3β4 nAChR [2] (nicotine-stimulated 86Rb+ efflux, α3β4 nAChR, read-out: IC50).
On to `COc1ccc(C(=O)O)cc1OC` [dimethoxybenzoic ac., 3,4-dimethoxybenzoic acid], for which the koff at α3β4 nAChR [1] (setting [4]) stood at 18.2 s⁻¹. On α3β4 nAChR [1] (setting [5]), the kon worked out at 9.8e+06 M⁻¹ s⁻¹. In addition, on α3β4 nAChR [1] (setting [6]), the Kd is 1860 nM. Moreover, the “k′(NLC) retention capacity factor” value at α3β4 nAChR [1] (setting [7]) is 4.46.
The compound `O=C(O)c1ccc([N+](=O)[O-])cc1[N+](=O)[O-]` [dinitrobenzoic acid, 2,4-dinitrobenzoic acid] showed a negative logarithm of the Kd (pKd) at α3β4 nAChR [1] (log K chromatographic equilibrium constant, α3β4 nAChR, NLC) of 5.87. Moreover, on α3β4 nAChR [1] (α3β4 nAChR, NLC), the “koff dissociation constant rate” value stood at 12.12 s⁻¹. Further, at α3β4 nAChR [1] (setting [7]), the “k′(NLC) retention capacity factor” value was found to be 7.77.
Take `CC[n+]1c(-c2ccccc2)c2cc(N)ccc2c2ccc(N)cc21` [ethidium]: the koff at α3β4 nAChR [1] (setting [4]) is 0.18 s⁻¹. Moreover, at α3β4 nAChR [1] (setting [5]), the kon amounted to 3.59e+07 M⁻¹ s⁻¹. For the same compound, the Kd on α3β4 nAChR [1] (setting [6]) is 5.01 nM. Also, at α3β4 nAChR [1] (setting [7]), the “k′(NLC) retention capacity factor” value was determined as 191.82.
As to `COc1ccc(CCN(C)CCCC(C#N)(c2cc(OC)c(OC)c(OC)c2)C(C)C)cc1OC` (centres unmarked) [galapamil], the “logk′” value at α3β4 nAChR [1] (α3β4 nAChR) is 1.88. Moreover, on α3β4 nAChR [1] (α3β4 nAChR, NLC), the “koff dissociation constant rate” value worked out at 0.74 s⁻¹ and the “log K chromatographic equilibrium constant” value is listed as 7.43 M^−1. Further, at α3β4 nAChR [1] (setting [7]), the “k′(NLC) retention capacity factor” value was found to be 75.93. Besides, the pIC50 on α3β4 nAChR [2] (setting [8]) is 5.19.
In the case of `COc1ccc(CC2c3cc(OC)c(OC)cc3CCN2C)cc1OC` (centres unmarked) [laudanosine], on α3β4 nAChR [1] (setting [4]), the off-rate (koff) was 2.18 s⁻¹. Further, at α3β4 nAChR [1] (setting [5]), the association rate constant (kon) worked out at 2.5e+07 M⁻¹ s⁻¹. Moreover, on α3β4 nAChR [1] (setting [6]), the Kd is 87.1 nM. The “k′(NLC) retention capacity factor” value at α3β4 nAChR [1] (setting [7]) was found to be 22.87.
Consider `COc1ccc2c(c1)[C@@]13CCCC[C@H]1[C@@H](C2)N(C)CC3` [levomethorphan], for which, on α3β4 nAChR [1] (chromatographic (NLC and van't Hoff)), the “K′” value is 35.81 (±0.15). The Ka at α3β4 nAChR [1] (chromatographic (NLC)) is listed as 12.01 (±0.23) μM^−1. Moreover, the dissociation rate constant (koff) on α3β4 nAChR [1] (chromatographic (NLC), read-out: Koff) was determined as 1.55 s⁻¹; at α3β4 nAChR [1] (setting [4]), 1.55 s⁻¹. Further, the kon on α3β4 nAChR [1] (chromatographic (NLC), read-out: Kon) turned out to be 1.86e+07 M⁻¹ s⁻¹; on α3β4 nAChR [1] (setting [5]), 1.86e+07 M⁻¹ s⁻¹. The Kd is 83.2 nM at α3β4 nAChR [1] (chromatographic (NLC), read-out: logKa (converted)) and 83.2 nM at α3β4 nAChR [1] (setting [6]). The “ΔG°” value on α3β4 nAChR [1] (chromatographic (van't Hoff)) is on record as −2.04 (±0.4) kcal mol^−1. The “ΔH°” value on α3β4 nAChR [1] (chromatographic (van't Hoff)) was −6.59 (±0.18) kcal mol^−1. On α3β4 nAChR [1] (chromatographic (van't Hoff)), the “ΔS°” value is −15.20 (0.6) cal mol^−1T^−1. Also, the “k′(NLC) retention capacity factor” value on α3β4 nAChR [1] (setting [7]) stood at 35.81. The pIC50 was 4.96 at α3β4 nAChR [2] (IC50, nicotine stimulated Rb+ efflux) and 4.96 against α3β4 nAChR [2] (setting [9]).
Turning to `CNC1(C)C2CCC(C2)C1(C)C` (centres unmarked) [mecamylamine], on α3β4 nAChR [1] (pH 7.4), the “k′(NLC) retention capacity factor” value was found to be 10.89.
Take `CCC(=O)C(CC(C)N(C)C)(c1ccccc1)c1ccccc1` (centres unmarked) [methadone]: at α3β4 nAChR [1] (setting [4]), the koff turned out to be 1.37 s⁻¹. The association rate constant (kon) at α3β4 nAChR [1] (setting [5]) is 1.59e+07 M⁻¹ s⁻¹. The Kd at α3β4 nAChR [1] (setting [6]) is 87.1 nM. For the same compound, the “k′(NLC) retention capacity factor” value at α3β4 nAChR [1] (setting [7]) worked out at 44.45. This compound had a pIC50 against α3β4 nAChR [2] (setting [9]) of 5.72.
`CN[C@@H](C)Cc1ccccc1` [methamphetamine]: the dissociation rate constant (koff) at α3β4 nAChR [1] (setting [4]) was 6.81 s⁻¹. Further, the kon on α3β4 nAChR [1] (setting [5]) came to 2.91e+07 M⁻¹ s⁻¹. The Kd on α3β4 nAChR [1] (setting [6]) was 234 nM. The “k′(NLC) retention capacity factor” value at α3β4 nAChR [1] (setting [7]) is 8.38.
Turning to `COC(=O)C1=C(C)NC(C)=C(C(=O)OCCN(C)Cc2ccccc2)C1c1cccc([N+](=O)[O-])c1` (centres unmarked) [nicardapine], the “logk′” value at α3β4 nAChR [1] (α3β4 nAChR) stood at 2.33. Further, at α3β4 nAChR [2] (setting [8]), the pIC50 was 5.60.
`CN1CCCC1c1cccnc1` (centres unmarked) [nicotine]: the “maximum 86Rb+ efflux” value on α3β4 nAChR [3] is ~45 % of the amount loaded.
For `COc1ccc(CCNCCCC(C#N)(c2ccc(OC)c(OC)c2)C(C)C)cc1OC` (centres unmarked) [nor-verapamil], the “enantioselectivity of binding towards nicotinic affinity column” value at α3β4 nAChR [1] (chromatographic experiments and NLC data) was “did not exhibit noticeable differences between enantiomers”. For the same compound, the “logk′” value on α3β4 nAChR [1] (α3β4 nAChR) was found to be 1.99. Also, the pIC50 against α3β4 nAChR [2] (IC50, nicotine-stimulated 86Rb+ efflux, cell line KXα3β4R2) was 5.59; against α3β4 nAChR [2] (IC50, nicotine-stimulated 86Rb+ efflux, α3β4 nAChR) it was 5.68; against α3β4 nAChR [2] (setting [9]), 5.59.
Consider `CCCCC1C(=O)N(c2ccccc2)N(c2ccccc2)C1=O` [phenylbutazone], for which the koff at α3β4 nAChR [1] (setting [4]) was 22.2 s⁻¹. In addition, the on-rate constant (kon) on α3β4 nAChR [1] (setting [5]) is 8.7e+06 M⁻¹ s⁻¹. In addition, the Kd on α3β4 nAChR [1] (setting [6]) was 2570 nM.
`c1ccc(C2(N3CCCCC3)CCCCC2)cc1` [phenylcyclidine]: the dissociation rate constant (koff) at α3β4 nAChR [1] (setting [4]) turned out to be 2.69 s⁻¹. Besides, the kon at α3β4 nAChR [1] (setting [5]) is 2.32e+07 M⁻¹ s⁻¹. Besides, the Kd at α3β4 nAChR [1] (setting [6]) was 115 nM. Also, the “k′(NLC) retention capacity factor” value at α3β4 nAChR [1] (setting [7]) stood at 24.06. Also, the pIC50 on α3β4 nAChR [2] (setting [9]) is 5.15; with nAChR, SH-SY5Y cells, 5.23.

The values above are taken from patent publication US7749984B2, “Computer-based model for identification and characterization of non-competitive inhibitors of nicotinic acetylcholine receptors and related ligand-gated ion channel receptors” (priority 2003, dated 2010).
